ChEMBL document CHEMBL1156080, “Small molecule inhibitors of Myc/Max dimerization and Myc-induced cell transformation” (Bioorg Med Chem Lett, 2009)
Active and inactive are the calls of the source. The rule behind the calls is not given here.

Molecular target: Transcription factor Jun (Gallus gallus) (UniProt P18870)
Test: Inhibition of Jun-mediated oncogenic transformation in chicken embryo fibroblasts

Sequence of Transcription factor Jun (Gallus gallus) (P18870 whole entry): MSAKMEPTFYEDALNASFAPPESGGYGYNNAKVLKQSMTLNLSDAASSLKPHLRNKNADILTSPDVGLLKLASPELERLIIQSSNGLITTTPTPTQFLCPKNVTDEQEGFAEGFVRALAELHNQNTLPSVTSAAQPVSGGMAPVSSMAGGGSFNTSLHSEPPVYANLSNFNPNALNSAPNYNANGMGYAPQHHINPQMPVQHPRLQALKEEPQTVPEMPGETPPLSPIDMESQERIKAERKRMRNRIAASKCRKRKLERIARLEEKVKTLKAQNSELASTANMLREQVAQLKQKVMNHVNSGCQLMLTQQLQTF

Row | Structure (SMILES) | inhibition
1 | CNC(=O)[C@@H]1CN(C(=O)CCCCCNC(=O)OC(C)(C)C)C[C@H]1C(=O)NC[C@H](NS(=O)(=O)c1cc(Cl)sc1Cl)C(=O)OC(C)(C)C [MYCMYCIN 2] | inactive
2 | CNC(=O)[C@@H]1CN(C(=O)CCCNC(=O)OC(C)(C)C)C[C@H]1C(=O)NC[C@H](NS(=O)(=O)c1cc(Cl)sc1Cl)C(=O)OC(C)(C)C | inactive
3 | CCCCS(=O)(=O)N[C@@H](CNC(=O)[C@@H]1CN(C(=O)CCCCCNC(=O)OC(C)(C)C)C[C@H]1C(=O)O)C(=O)OC(C)(C)C | inactive

Next, values leading:

Row | inhibition | Structure (SMILES)
4 | inactive | CNC(=O)[C@@H]1CN(C(=O)CCCCCNC(=O)OC(C)(C)C)C[C@H]1C(=O)NC[C@H](NS(=O)(=O)CCc1cccc2ccccc12)C(=O)OC(C)(C)C
5 | inactive | CNC(=O)[C@@H]1CN(C(=O)CCC2CCN(C(=O)OC(C)(C)C)CC2)C[C@H]1C(=O)NCCC(=O)OC(C)(C)C
6 | inactive | CN(C)c1cccc2c(S(=O)(=O)N[C@@H](CNC(=O)[C@@H]3CN(C(=O)CCC4CCN(C(=O)OC(C)(C)C)CC4)C[C@H]3C(=O)O)C(=O)OC(C)(C)C)cccc12
7 | inactive | CNC(=O)[C@@H]1CN(C(=O)CCC2CCN(C(=O)OC(C)(C)C)CC2)C[C@H]1C(=O)NC[C@H](NS(=O)(=O)CCc1cccc2ccccc12)C(=O)OC(C)(C)C

Test system: not listed separately
Test: Inhibition of Myc/Max heterodimerization at 20 uM by FRET assay

Row | Structure (SMILES) | inhibition [%]
8 | CNC(=O)[C@@H]1CN(C(=O)CCCCCNC(=O)OC(C)(C)C)C[C@H]1C(=O)NC[C@H](NS(=O)(=O)c1cc(Cl)sc1Cl)C(=O)OC(C)(C)C [MYCMYCIN 2] | 18
9 | Cc1cc(C)c(S(=O)(=O)N[C@@H](CNC(=O)[C@@H]2CN(C(=O)CC3CCN(C(=O)OC(C)(C)C)CC3)C[C@H]2C(=O)O)C(=O)OC(C)(C)C)c(C)c1 [MYCMYCIN 1] | 66
10 | CNC(=O)[C@@H]1CN(C(=O)CCCNC(=O)OC(C)(C)C)C[C@H]1C(=O)NC[C@H](NS(=O)(=O)c1cc(Cl)sc1Cl)C(=O)OC(C)(C)C | 8
11 | CCCCS(=O)(=O)N[C@@H](CNC(=O)[C@@H]1CN(C(=O)CCCCCNC(=O)OC(C)(C)C)C[C@H]1C(=O)O)C(=O)OC(C)(C)C | 72

More lines, now with the values ahead:

Row | inhibition [%] | Structure (SMILES)
12 | 24 | CNC(=O)[C@@H]1CN(C(=O)CCCCCNC(=O)OC(C)(C)C)C[C@H]1C(=O)NC[C@H](NS(=O)(=O)CCc1cccc2ccccc12)C(=O)OC(C)(C)C
13 | 30 | CNC(=O)[C@@H]1CN(C(=O)CCC2CCN(C(=O)OC(C)(C)C)CC2)C[C@H]1C(=O)NCCC(=O)OC(C)(C)C
14 | 75 | CN(C)c1cccc2c(S(=O)(=O)N[C@@H](CNC(=O)[C@@H]3CN(C(=O)CCC4CCN(C(=O)OC(C)(C)C)CC4)C[C@H]3C(=O)O)C(=O)OC(C)(C)C)cccc12
15 | 43 | CNC(=O)[C@@H]1CN(C(=O)CCC2CCN(C(=O)OC(C)(C)C)CC2)C[C@H]1C(=O)NC[C@H](NS(=O)(=O)CCc1cccc2ccccc12)C(=O)OC(C)(C)C

Test system: not listed separately
Test: Cytotoxicity against chicken embryo fibroblasts
Design: species or system Gallus gallus

Row | Structure (SMILES) | Activity
16 | CNC(=O)[C@@H]1CN(C(=O)CCCCCNC(=O)OC(C)(C)C)C[C@H]1C(=O)NC[C@H](NS(=O)(=O)c1cc(Cl)sc1Cl)C(=O)OC(C)(C)C [MYCMYCIN 2] | Non-toxic
17 | Cc1cc(C)c(S(=O)(=O)N[C@@H](CNC(=O)[C@@H]2CN(C(=O)CC3CCN(C(=O)OC(C)(C)C)CC3)C[C@H]2C(=O)O)C(=O)OC(C)(C)C)c(C)c1 [MYCMYCIN 1] | Non-toxic

Molecular target: Proto-oncogene tyrosine-protein kinase Src (Gallus gallus) (UniProt P00523)
Test: Inhibition of Src-mediated oncogenic transformation in chicken embryo fibroblasts

Row | Structure (SMILES) | inhibition
18 | Cc1cc(C)c(S(=O)(=O)N[C@@H](CNC(=O)[C@@H]2CN(C(=O)CC3CCN(C(=O)OC(C)(C)C)CC3)C[C@H]2C(=O)O)C(=O)OC(C)(C)C)c(C)c1 [MYCMYCIN 1] | inactive
19 | CNC(=O)[C@@H]1CN(C(=O)CCCNC(=O)OC(C)(C)C)C[C@H]1C(=O)NC[C@H](NS(=O)(=O)c1cc(Cl)sc1Cl)C(=O)OC(C)(C)C | inactive
20 | CCCCS(=O)(=O)N[C@@H](CNC(=O)[C@@H]1CN(C(=O)CCCCCNC(=O)OC(C)(C)C)C[C@H]1C(=O)O)C(=O)OC(C)(C)C | inactive

Results, then the compound that gave them:

Row | inhibition | Structure (SMILES)
21 | inactive | CNC(=O)[C@@H]1CN(C(=O)CCCCCNC(=O)OC(C)(C)C)C[C@H]1C(=O)NC[C@H](NS(=O)(=O)CCc1cccc2ccccc12)C(=O)OC(C)(C)C
22 | inactive | CNC(=O)[C@@H]1CN(C(=O)CCC2CCN(C(=O)OC(C)(C)C)CC2)C[C@H]1C(=O)NCCC(=O)OC(C)(C)C
23 | inactive | CN(C)c1cccc2c(S(=O)(=O)N[C@@H](CNC(=O)[C@@H]3CN(C(=O)CCC4CCN(C(=O)OC(C)(C)C)CC4)C[C@H]3C(=O)O)C(=O)OC(C)(C)C)cccc12
24 | inactive | CNC(=O)[C@@H]1CN(C(=O)CCC2CCN(C(=O)OC(C)(C)C)CC2)C[C@H]1C(=O)NC[C@H](NS(=O)(=O)CCc1cccc2ccccc12)C(=O)OC(C)(C)C

Species: Gallus gallus
Test: Inhibition of Myc/Max heterodimerization in chicken embryo fibroblasts assessed as inhibition of oncogenically transformed cell foci formation at 20 uM

Row | Structure (SMILES) | inhibition
25 | CNC(=O)[C@@H]1CN(C(=O)CCCCCNC(=O)OC(C)(C)C)C[C@H]1C(=O)NC[C@H](NS(=O)(=O)c1cc(Cl)sc1Cl)C(=O)OC(C)(C)C [MYCMYCIN 2] | Active
26 | Cc1cc(C)c(S(=O)(=O)N[C@@H](CNC(=O)[C@@H]2CN(C(=O)CC3CCN(C(=O)OC(C)(C)C)CC3)C[C@H]2C(=O)O)C(=O)OC(C)(C)C)c(C)c1 [MYCMYCIN 1] | Active
27 | CNC(=O)[C@@H]1CN(C(=O)CCCNC(=O)OC(C)(C)C)C[C@H]1C(=O)NC[C@H](NS(=O)(=O)c1cc(Cl)sc1Cl)C(=O)OC(C)(C)C | Active
28 | CCCCS(=O)(=O)N[C@@H](CNC(=O)[C@@H]1CN(C(=O)CCCCCNC(=O)OC(C)(C)C)C[C@H]1C(=O)O)C(=O)OC(C)(C)C | Active

Other lines, results leading:

Row | inhibition | Structure (SMILES)
29 | Active | CNC(=O)[C@@H]1CN(C(=O)CCCCCNC(=O)OC(C)(C)C)C[C@H]1C(=O)NC[C@H](NS(=O)(=O)CCc1cccc2ccccc12)C(=O)OC(C)(C)C
30 | Active | CNC(=O)[C@@H]1CN(C(=O)CCC2CCN(C(=O)OC(C)(C)C)CC2)C[C@H]1C(=O)NCCC(=O)OC(C)(C)C
31 | Active | CN(C)c1cccc2c(S(=O)(=O)N[C@@H](CNC(=O)[C@@H]3CN(C(=O)CCC4CCN(C(=O)OC(C)(C)C)CC4)C[C@H]3C(=O)O)C(=O)OC(C)(C)C)cccc12
32 | Active | CNC(=O)[C@@H]1CN(C(=O)CCC2CCN(C(=O)OC(C)(C)C)CC2)C[C@H]1C(=O)NC[C@H](NS(=O)(=O)CCc1cccc2ccccc12)C(=O)OC(C)(C)C
